Test results reported in patent EP2522335A1, “Use of resveratrol and sodium-ascorbyl-phophate” (DSM IP Assets B.V., priority 2011, dated 2012).
Like-named read-outs stand apart in the source and are kept apart here.

Tested on: TYR
Test: Assessment of gene modulation in normal human epidermal melanocytes (RT-qPCR, PCR array mQPA H-Melanocyte-64)
Format: cell-based
Details: NHEM cells, 72 hours treatment
Method: Normal human epidermal melanocytes were cultivated for 24 hours. Culture medium was then removed and replaced by fresh medium containing the active ingredient to be evaluated or exempt of it (control). Cells were cultivated for additional 72 hours. All experimental conditions were performed in triplicate. At the end of the cultivation, the cells were harvested and washed with phosphate buffered saline (PBS) solution and immediately frozen at -80 °C. The expression of selected markers was analyzed using RT-qPCR method on mRNA extracted from cells layer for each treatment condition. The differential expression analysis was performed by PCR arrays of the screening format "mQPA H-Melanocyte-64", which focuses on 64 genes selected for their importance in pigmentation and melanocyte biology. Total RNA was extracted from each sample using TRI-Reagent®. The amount and quality of the RNA was evaluated using a lab-on-a-chip Bioanalyzer (Agilent technologies). Potential contaminants traces of DNA were removed […] The incorporation of fluorescence in amplified DNA was measured continuously during the PCR cycles. […] The value selected for RE calculations is the "output point" (Ct) of the fluorescence curve. For a given marker, the highest is the cycle number; the lowest, is the mRNA quantity. The RE value is expressed in arbitrary units (AU) according to the equation: (((1)/(2)))^NC x 10^6 [formula] Where NC is the number of cycles.

[1] = resveratrol 5 µg/ml, sodium-ascorbyl-phosphate 1 mg/ml, combination 5 µg/ml + 1 mg/ml, read-out: TYR (expression ratio compared to control of the gene TYR)
[2] = resveratrol 5 micrograms/ml, sodium-ascorbyl-phosphate 1mg/ml, alone or combined, positive = up-regulation, negative = down-regulation, read-out: up-regulation / down-regulation of TYR when compared to untreated cells

Oc1ccc(C=Cc2cc(O)cc(O)c2)cc1 [Resveratrol, 3,4',5 trihydroxystilbene]
activation at 5 µg/mL [1]: 25%
activation at 5 µg/mL [2]: 25%

O=C1O[C@H]([C@@H](O)CO)C(O)=C1OP(=O)(O)O [Sodium-ascorbyl-phosphate]
activation at 1000 µg/mL [1]: 30%
activation at 1000 µg/mL [2]: 30%
